# Assay results published in US20180244653A1, “SELECTIVE ALPHA-7 NICOTINIC RECEPTOR AGONISTS AND METHODS FOR MAKING AND USING THEM” (THE REGENTS OF THE UNIVERSITY OF CALIFORNIA, priority 2015, published 2018).
# How the values were obtained:
# Assay type in all cases: in vivo
# [1] = system: scopolamine-induced amnesic mice; assay: Object recognition test (ORT); details: i.p., tacrine 1 mg/kg, IND8, QND8 10 and 50 μmol/kg
# Experimental: FIG. 22 illustrates exploration time to familiar (F) and novel (N) objects of IND8 (A) and QND8 (B) in test phase of ORT. Each mouse was allowed to explore an open field apparatus for 5 min in a habituation phase. After a 24 h period, IND8, QND8, PNU-282987, vehicle (15% Tween80, SH) and tacrine (TC) were injected 1 h and scopolamine (SC) 30 min before sample phase, respectively. Each mouse explored 2 identical objects in the sample phase for 5 min and then placed in its cage for 10 min before the test phase began. In the 5 min of test phase, one of the objects was changed to a new one. The exploration time of these objects was recorded.
# In both data sets, a discrimination index (DI) was calculated and used to evaluate the ability of mice to discriminate between familiar and novel objects. Data are represented in FIG. 23.
# (§1) Amnesia was induced pharmacologically in mice via scopolamine injection (single dose) for 30 min prior to start the experiments. They were divided into vehicle group: receiving 15% tween 80 and 0.9% NSS, amnesia group: receiving scopolamine 1 mg/kg, standard positive control group receiving tacrine 1 mg/kg, and test group: receiving IND8, QND8 at dose 5, 10, 25, 50 μmol/kg, or PNU-282987 3, 10 mg/kg, single dose. All mice were acclimated in an experimental room at least 30 min before the experiments.
# The apparatus was made of black polyvinyl chloride (52×52×40 cm). The objects used in this experiment had different visual shapes and colors to be discriminated. They were placed 10 cm from the side wall in the balanced manner. The box area and objects were cleaned with 70% ethanol between each experiment to remove odor cues.
# The mice were randomly divided into different treatment groups. They were allowed to freely explore the open field apparatus for 5 min for habituation in the day prior to the experiments to get familiar with the apparatus. On the experimental day, test compounds injected 1 h, whereas scopolamine administered 30 min before the sample phase (acquisition trial). The mice were placed in the apparatus to explore 2 identical objects. After 10 min of acclimation in their cages, one object was changed to a new one, and mice were allowed to explore these objects for 5 min in the test phase (retention trial). The exploration time of each object was recorded if the nose of mice approached the objects within 3 cm or touched the objects. The discrimination index (DI) was calculated by using (TN−TF)/(TN+TF); TN and TF represented exploration time of new and familiar objects, respectively.
# [2] = system: scopolamine-induced amnesic mice; assay: Water maze test; details: i.p., IND8 25 and 50 μmol/kg, QND8 25 μmol/kg
# Experimental: The water maze test, a model for spatial learning and reference memory, related to function in the hippocampus, was also used as a study model in which mice locate a hidden platform after training session. Mice were trained to locate a hidden platform until a steady state measured by a shortened escape latency time was reached.
# The average swimming time in a target quadrant where the platform had previously been placed was measured in the test day, day 8 (FIG. 25).
# FIG. 25 illustrates the average swimming time in the target quadrant of water maze test. Data are presented in means±SE. IND8, QND8, PNU-282987, vehicle (15% Tween80, SH) and tacrine (TC) were injected 1 h and scopolamine (SC) 30 min before testing, respectively.
# A black circular tank (diameter 70 cm; height 28 cm) was divided into 4 quadrants with a removable escape platform (6×7.5×14 cm) centered in a target quadrant. The tank was filled with water to 15 cm height and the platform was located 1 cm below the water surface.
# Mice were trained from 5-7 days to get the steady state of escape latency. During day 1 to 5, each mouse was trained to swim from each quadrant with 1 min maximum time and allowed to stay on the platform for 10 sec. The mouse is placed on the platform for 10 s if it cannot find the hidden platform within 1 min. The escape latency time from each quadrant was measured. […] The probe test began when the escape latency time reached the steady state. The platform was removed and time spent in the target quadrant was measured. On the next day, all conditions were the same as probe test, but the platform was brought back to remind the mice of the target quadrant location. All mice were injected with test compounds 1 h and scopolamine 30 min before testing. The swimming time in the target quadrant was measured.
# [3] = system: scopolamine-induced amnesic mice; assay: Modified Y-maze test; details: i.p. 1 h before, scopolamine 1 mg/kg, doses as in the sentence
# Experimental: The modified Y-maze test was performed to evaluate spatial working memory. The experiment was divided into 3 sessions; (i) IND8 at 5, 10, and 50 μmol/kg or 1.5, 2.9, and 14.7 mg/kg doses, (ii) QND8 at 5, 10, and 50 μmol/kg or 1.4, 2.7, 13.5 mg/kg doses, and (iii) IND8 and QND8 at dose of 25 μmol/kg or 7.3 and 6.8 mg/kg, respectively and PNU-282987 at […] or 3, 10 mg/kg doses.
# FIG. 21 illustrates the percentage of unfamiliar arm exploration in modified Y-maze of IND8 (FIG. 21A), QND8 (FIG. 21B), and IND8, QND8, PNU-282987 (FIG. 21C). IND8, QND8, PNU-282987, vehicle (15% Tween80, SH) and tacrine (TC) were injected 1 h and scopolamine (SC) 30 min before sample phase, respectively. Each mouse was placed at the end of one arm and allowed to access 2 arms of Y-maze for 5 min in sample phase. After a 30 min period, the mouse was allowed to explore 3 arms for 5 min. The number of entries for each arm was recorded and the percentage of unfamiliar arm exploration was calculated. Data represented in means±standard errors (SE).
# Male ICR mice (6-weeks of age) were housed in 5 per cage with free access to food and tap water under 12 h light and dark cycle (light on 6:00 to 18:00) in a temperature and humidity controlled room. They were acclimated in a laboratory at least 7 days prior to starting experiments. The experimental protocols were approved by the Animal Care and Use Committee of KhonKaen University, Thailand.
# Tacrine hydrochloride (Sigma-Aldrich, St. Louis, Mo.), PNU-282987 hydrochloride (Alamone, Jerusalem, Israel) and test compounds were prepared as suspensions by using 15% tween 80 in distilled water as a vehicle, whereas scopolamine hydrochloride (Sigma-Aldrich, St. Louis, Mo.) and methyllycaconitine citrate (MLA) (Abcam, Cambridge, England) were prepared as a solution by dissolving with 0.9% normal saline solution (NSS). All compounds were administered by intraperitoneal (i.p.) injection in the amount of 5 mL/kg. Test compounds were injected 1 h and scopolamine was administered 30 min before the experiments, whereas MLA was injected 5 min before the test compounds.
# as §1
# The maze in this experiment is the same apparatus using in locomotor activity test except there is the black partition to close one of three arms. The mice were randomly separated into different treatment groups. They were injected with test compounds and scopolamine at 1 h and 30 min, respectively, before the sample phase. In this phase which one arm of Y-maze was closed by the black partition, each mouse was placed at the end of one arm and allowed to move through 2 arms for 5 min to get familiar with the two opened arms. After 30 min of resting, all arms were opened and the mouse was allowed to move freely through all 3 arms. The maze area and the partition were cleaned with 70% ethanol between each experiment to remove olfactory cues. The number of entries in each arm was counted visually if mice accessed into each arm at least 10 cm. The percentage of unfamiliar arm exploration was calculated as following equation: […]
smiles,measurement,setting,value
"Nc1c2c(nc3ccccc13)CCCC2 [Tacrine, reference compound]","Discrimination index / episodic short-term memory, ORT vs scopolamine-treated group",[1],significantly improved episodic short-term memory
same,"Discrimination index / episodic short-term memory, ORT vs scopolamine-treated group",[1]; listed as tacrine,can improve cognitive deficits induced by scopolamine in all test models
same,"Time in target quadrant, water maze vs scopolamine-treated group",[2],significantly improved cognitive deficits
same,"Time in target quadrant, water maze vs scopolamine-treated group",[2]; listed as tacrine,can improve cognitive deficits induced by scopolamine in all test models
same,"Unfamiliar arm exploration / cognitive deficit, modified Y-maze vs scopolamine-treated group",[3],reversed the cognitive deficit induced by scopolamine
same,"Unfamiliar arm exploration / cognitive deficit, modified Y-maze vs scopolamine-treated group",[3]; listed as tacrine,can improve cognitive deficits induced by scopolamine in all test models
